Literature values in patent publication US9808553B2, “Haemostatic wound dressing” (Haemostatix Limited, priority 2012, dated 2017).

Molecular target: fibrinogen (Homo sapiens, UniProt P02679)
Sequence (P02679 27-453): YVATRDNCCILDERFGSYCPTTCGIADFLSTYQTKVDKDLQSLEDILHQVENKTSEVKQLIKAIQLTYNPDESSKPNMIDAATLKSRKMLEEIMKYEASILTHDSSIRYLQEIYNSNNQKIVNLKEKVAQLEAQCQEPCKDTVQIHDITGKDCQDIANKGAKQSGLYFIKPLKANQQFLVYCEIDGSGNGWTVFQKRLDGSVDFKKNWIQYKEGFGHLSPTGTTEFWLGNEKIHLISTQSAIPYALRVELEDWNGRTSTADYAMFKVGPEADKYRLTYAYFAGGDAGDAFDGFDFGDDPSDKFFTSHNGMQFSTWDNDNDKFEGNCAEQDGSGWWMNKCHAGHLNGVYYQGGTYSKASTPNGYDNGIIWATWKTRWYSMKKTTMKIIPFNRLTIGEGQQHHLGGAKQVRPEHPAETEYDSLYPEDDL
Sequence (P02671 20-629 partner limits assumed): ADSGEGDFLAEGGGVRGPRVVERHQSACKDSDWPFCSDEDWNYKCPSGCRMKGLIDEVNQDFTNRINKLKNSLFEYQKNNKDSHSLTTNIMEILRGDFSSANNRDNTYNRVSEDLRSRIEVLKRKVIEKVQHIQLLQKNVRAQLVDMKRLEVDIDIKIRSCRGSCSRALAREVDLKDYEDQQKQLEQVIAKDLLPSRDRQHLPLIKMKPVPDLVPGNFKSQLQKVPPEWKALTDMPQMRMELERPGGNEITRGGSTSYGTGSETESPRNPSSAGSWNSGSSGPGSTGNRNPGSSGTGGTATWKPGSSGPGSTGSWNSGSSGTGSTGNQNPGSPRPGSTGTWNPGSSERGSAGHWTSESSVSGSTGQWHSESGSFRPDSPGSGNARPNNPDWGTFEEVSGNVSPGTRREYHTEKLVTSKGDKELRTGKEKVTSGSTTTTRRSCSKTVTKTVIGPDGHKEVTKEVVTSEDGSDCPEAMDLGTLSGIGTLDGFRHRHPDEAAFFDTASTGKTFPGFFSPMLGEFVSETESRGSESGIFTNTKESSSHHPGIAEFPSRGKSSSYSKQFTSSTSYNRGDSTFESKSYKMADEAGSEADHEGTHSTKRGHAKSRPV
Sequence (P02675 31-491 partner): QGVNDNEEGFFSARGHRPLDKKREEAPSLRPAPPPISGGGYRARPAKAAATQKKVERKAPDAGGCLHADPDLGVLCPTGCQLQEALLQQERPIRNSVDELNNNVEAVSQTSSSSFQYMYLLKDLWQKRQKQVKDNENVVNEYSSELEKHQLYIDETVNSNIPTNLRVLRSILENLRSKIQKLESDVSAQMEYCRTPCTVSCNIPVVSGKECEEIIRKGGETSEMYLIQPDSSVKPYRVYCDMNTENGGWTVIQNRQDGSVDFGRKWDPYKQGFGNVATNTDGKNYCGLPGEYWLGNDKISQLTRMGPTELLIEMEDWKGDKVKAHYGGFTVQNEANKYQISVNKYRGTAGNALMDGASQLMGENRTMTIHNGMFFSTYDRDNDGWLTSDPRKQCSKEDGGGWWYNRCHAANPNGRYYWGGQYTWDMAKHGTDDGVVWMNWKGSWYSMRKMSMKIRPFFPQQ

GPRP
Affinity for fibrinogen versus natural cleaved sequence with valine at position four: higher affinity
